Tested on: 186277-243-T-J2-PDC complex spheroid viability
Assay: Anticancer human tumor 186277-243-T-J2-PDC patient-derived colon adenocarcinoma cell line growth inhibition [POLQ]
Details: for IC50: curve of first compound; for viability, T/C: stronger effect = lower value; active = viability on the fitted dose curve at most 10% of control; inactive = the rest
Procedure: Multicellular complex tumor spheroid response to Polymerase (POL) inhibitors (novobiocin, ART-558, RP6685) in combination with a variety of drugs and investigational agents in selected tumor cell lines
The POL inhibitors (novobiocin, ART-558, and RP6685) were evaluated both individually and in combination with standard of care and investigational anticancer small molecules within a complex spheroid model of solid tumors. . Complex spheroids include a stromal component modeled by human endothelial cells (HUVEC) and fibroblasts modeled by human mesenchymal stem cells (MSCs). The concentration ranges selected for each drug and investigational agent were based upon clinically achievable concentrations if the clinical Cmax of the agent was known.
Compounds. The drugs and investigational agents: novobiocin (NSC847541), ART-558 (NSC835418), RP-6685 (NSC848927), peposertib (NSC802822), ceralasertib (NSC780249), elimusertib (NSC800525), camonsertib (NSC841442), AZD-1390 (NSC803789), olaparib (NSC753686), talazoparib (NSC767125), rucaparib (NSC756644), sotorasib (NSC818433), MRTX-1133 (NSC836407), SN-38 (NSC673596), topotecan (NSC609699), epotoside (NSC141540), doxorubicin (NSC123127), gemcitabine (NSC613327), 5-fluorouracil (NSC19893), paclitaxel (NSC125973), vemurafenib (NSC761431), MSA-2 (NSC828583), SN-011 (NSC837082), adavosertib (NSC754352), prexasertib (NSC758257), carboplatin (NSC241240) and oxaliplatin (NSC266046), were obtained from the National Cancer Institute (NCI) Developmental Therapeutics Program Chemical Repository (21). The FDA-approved anticancer drug set is available from the Developmental Therapeutics Program at https://dtp.cancer.gov/organization/dscb/obtaining/. […] The stock solutions were prepared in dimethyl sulfoxide (DMSO, Sigma-Aldrich, St. Louis, MO, cat. D2650), except for the platinum compounds which were prepared in saline (Quality Biological, Gaithersburg, MD, cat. 114-055-101), at 800-fold the tested concentration and stored at -70 degrees C prior to their use. All drugs and investigational agents were tested over a range starting from a high concentration at or near the clinical Cmax and decreasing in half-log increments. If the clinical Cmax for an agent had not been determined, the highest concentration tested was 10 microM, except for SN-38, which was tested at a high concentration of 1 microM.
Cell Culture. All cells were maintained in an incubator at 37 degrees C and 5% CO2 with 95% humidity. The PDC lines were cultured according to standard operating procedures established by the NCI PDMR (https://pdmr.cancer.gov). Table 3 of the manuscript, lists the cell lines along with the number of the three cell types plated to form the mct-spheroids and media for tumor cell growth. After thawing, all PDC lines, except 997537-175-T-J1-PDC and 415267-285-R-J2-PDC, were cultured in Matrigel-coated flasks prepared with a working solution of 1X Ham's F-12 nutrient mix, without supplementation (Thermo Fisher Scientific, cat. 11765054), 100 U/mL penicillin-streptomycin (Thermo Fisher Scientific, cat. 15140122), and 2.5% Matrigel (Corning Inc., Corning, NY, cat. 354248) for the first three passages. The two PDC lines 997537-175-T-J1-PDC and 415267-285-R-J2-PDC were cultured on uncoated flasks. The 857933-349-R-J2-PDC line was cultured in 6C/Colon 1B media containing advanced DMEM/F-12 (Thermo Fisher Scientific, cat. 12634028), 10 mM HEPES (Thermo Fisher Scientific, cat. 15630080), 1X GlutaMAX supplement (Thermo Fisher Scientific, cat. 35050061), 0.1 mg/mL primocin (InvivoGen, San Diego, CA, cat. ant-pm-2), 10% defined fetal bovine serum, heat inactivated (HyClone Laboratories Inc., Logan, UT, cat. SH30070.03HI), 50% L-WRN conditioned media (ATCC, cat. CRL-3276), 1.25 mM N-Acetyl-L-cysteine (Sigma-Aldrich, cat. A9165), 10 mM nicotinamide (Sigma-Aldrich, cat. N0636), 1X B-27 supplement (Thermo Fisher Scientific, cat. 17504044), 1X N-2 supplement (Thermo Fisher Scientific, cat. […]

[1] = second compound 0.0316 µM, first compound 0.0316 µM
[2] = second compound 0.0316 µM, first compound 0.1 µM
[3] = second compound 0.0316 µM, first compound 0.316 µM
[4] = second compound 0.0316 µM, first compound 1 µM
[5] = second compound 0.1 µM, first compound 0.0316 µM
[6] = second compound 0.1 µM, first compound 0.1 µM
[7] = second compound 0.1 µM, first compound 0.316 µM
[8] = second compound 0.1 µM, first compound 1 µM
[9] = second compound 0.316 µM, first compound 0.0316 µM
[10] = second compound 0.316 µM, first compound 0.1 µM
[11] = second compound 0.316 µM, first compound 0.316 µM
[12] = second compound 0.316 µM, first compound 1 µM
[13] = second compound 1 µM, first compound 0.0316 µM
[14] = second compound 1 µM, first compound 0.1 µM
[15] = second compound 1 µM, first compound 0.316 µM
[16] = second compound 1 µM, first compound 1 µM
[17] = second compound 3.16 µM, first compound 0.0316 µM
[18] = second compound 3.16 µM, first compound 0.1 µM
[19] = second compound 3.16 µM, first compound 0.316 µM
[20] = second compound 3.16 µM, first compound 1 µM
[21] = second compound 10 µM, first compound 0.0316 µM
[22] = second compound 10 µM, first compound 0.1 µM
[23] = second compound 10 µM, first compound 0.316 µM
[24] = second compound 10 µM, first compound 1 µM
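Also: spheroids exposed to compounds for seven days.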

COc1cc(C2c3cc4c(cc3C(OC3OC5COC(C)OC5C(O)C3O)C3COC(=O)C23)OCO4)cc(OC)c1O (centres undefined) + COC1C(OC(N)=O)C(O)C(Oc2ccc3c(O)c(NC(=O)c4ccc(O)c(CC=C(C)C)c4)c(=O)oc3c2C)OC1(C)C
739 nM: IC50 (second compound 0.1 µM)
659 nM: IC50 (second compound 0.316 µM)
560 nM: IC50 (second compound 3.16 µM)
662 nM: IC50 (second compound 1 µM)
727 nM: IC50 (second compound 0.0316 µM)
710 nM: IC50 (second compound 10 µM)
inactive: viability, T/C [1] 112% | viability, T/C [2] 128% | viability, T/C [3] 76.6% | viability, T/C [4] 40.9% | viability, T/C (second compound 0.0316 µM, first compound 3.16 µM) 25.7% | viability, T/C (second compound 0.0316 µM, first compound 10 µM) 11.6% | viability, T/C [5] 98.8% | viability, T/C [6] 113% | viability, T/C [7] 69.9% | viability, T/C [8] 42.1% | viability, T/C (second compound 0.1 µM, first compound 3.16 µM) 27.3% | viability, T/C (second compound 0.1 µM, first compound 10 µM) 11.9% | viability, T/C [9] 114% | viability, T/C [10] 116% | viability, T/C [11] 67.9% | viability, T/C [12] 39.7% | viability, T/C (second compound 0.316 µM, first compound 3.16 µM) 24.6% | viability, T/C (second compound 0.316 µM, first compound 10 µM) 11.8% | viability, T/C [13] 118% | viability, T/C [14] 120% | viability, T/C [15] 65.3% | viability, T/C [16] 42.3% | viability, T/C (second compound 1 µM, first compound 3.16 µM) 25.5% | viability, T/C (second compound 1 µM, first compound 10 µM) 12.4% | viability, T/C [17] 113% | viability, T/C [18] 124% | viability, T/C [19] 65.1% | viability, T/C [20] 37.6% | viability, T/C (second compound 3.16 µM, first compound 3.16 µM) 25.3% | viability, T/C (second compound 3.16 µM, first compound 10 µM) 11.3% | viability, T/C [21] 120% | viability, T/C [22] 110% | viability, T/C [23] 69.6% | viability, T/C [24] 40.3% | viability, T/C (second compound 10 µM, first compound 3.16 µM) 26.8% | viability, T/C (second compound 10 µM, first compound 10 µM) 11.8%

COc1cccc(OCCCN)c1-c1cc(Nc2cnc(C#N)cn2)n[nH]1 + Nc1ccc(C#CCN(C(=O)Cc2ncc(C(F)(F)F)cc2C(F)(F)F)c2ccc(F)cc2)nn1
< 3.16 nM: IC50 (second compound 0.0316 µM) | IC50 (second compound 0.1 µM) | IC50 (second compound 0.316 µM) | IC50 (second compound 1 µM) | IC50 (second compound 3.16 µM) | IC50 (second compound 10 µM)
inactive: viability, T/C (second compound 0.0316 µM, first compound 0.00316 µM) 47% | viability, T/C (second compound 0.0316 µM, first compound 0.01 µM) 13.1% | viability, T/C [1] 10.3% | viability, T/C [2] 9.69% | viability, T/C [3] 9.94% | viability, T/C [4] 10.9% | viability, T/C (second compound 0.1 µM, first compound 0.00316 µM) 38.6% | viability, T/C (second compound 0.1 µM, first compound 0.01 µM) 13.4% | viability, T/C (second compound 0.316 µM, first compound 0.00316 µM) 37.4% | viability, T/C (second compound 0.316 µM, first compound 0.01 µM) 13.8% | viability, T/C (second compound 1 µM, first compound 0.00316 µM) 37.2% | viability, T/C (second compound 1 µM, first compound 0.01 µM) 11.3% | viability, T/C (second compound 3.16 µM, first compound 0.00316 µM) 27.5% | viability, T/C (second compound 3.16 µM, first compound 0.01 µM) 10.3% | viability, T/C (second compound 10 µM, first compound 0.00316 µM) 17.6%
active: viability, T/C [5] 9.59% | viability, T/C [6] 9.13% | viability, T/C [7] 8.61% | viability, T/C [8] 9.39% | viability, T/C [9] 9.62% | viability, T/C [10] 8.58% | viability, T/C [11] 10.1% | viability, T/C [12] 9.81% | viability, T/C [13] 9.81% | viability, T/C [14] 8.9% | viability, T/C [15] 10.1% | viability, T/C [16] 9.12% | viability, T/C [17] 9.29% | viability, T/C [18] 8.63% | viability, T/C [19] 10.8% | viability, T/C [20] 10.4% | viability, T/C (second compound 10 µM, first compound 0.01 µM) 8.38% | viability, T/C [21] 9.28% | viability, T/C [22] 8.09% | viability, T/C [23] 9.97% | viability, T/C [24] 9.55%

Reference: PubChem BioAssay AID1963854 (Molecular Pharmacology Branch, DTP, NCI, 2024)
